According to US9725490B2, “ERAP1-derived peptide and use thereof” (TOKUSHIMA UNIVERSITY, priority 2011, dated 2017):
One block for each compound: values may come before it.

Columns and labels:
[1] = test system: transcriptional activity of ERα (ERE); experiment: ERE-luciferase reporter assay in MCF-7 cells; assay type: cell-based, human; conditions: 10 nM E2 24 hours
Procedure: FIG. 3-2 is a diagram illustrating promotion effect of PHB2 nuclear translocation and suppression effect of the transcriptional activation of ER by ERAP1-peptide treatment. (C) illustrates representative images of stained immune cells, showing the localization of the ERAP1-peptide (HA-tagged ERAP1-peptide) and PHB2. MCF-7 cells were treated with 10 μM HA-tagged ERAP1-peptide for 24 hours in the presence or in the absence of 10 nM E2. After the immobilization, the cells were subjected to immunonfluorescent staining using an anti-HA antibody, an anti-PHB2 antibody and DAPI (for discriminating the nucleus). The arrow indicates the nuclear-translocated ERAP1-peptide. […] Then, immediately, the cells were stimulated with 10 nM E2 for 24 hours. TAM indicates the tamoxifen treatment.
(§1) FIG. 3-3 is as diagram illustrating the results of the luciferase assay by which the inhibition effect of the ERAP1-peptide was evaluated. MCF-7 cells temporarily transfected with an ERE-luciferase reporter vector (F) or an AP-1-luciferase reporter vector (F) were treated with the ERAP1-peptide, the scramble peptide or the mutant peptide in the concentrations shown in the […]. Then, immediately, the cells were stimulated with 10 nM E2 for 24 hours. TAM indicates the tamoxifen treatment.
(§2) FIG. 4-3 is a diagram illustrating that the ERAP1-peptide promotes nuclear translocation of PHB2. (C) and (D) are figures that show the results of the luciferase assay by which the inhibition effect of the ERAP1-peptide on the ERα transcriptional activity was evaluated. MCF-7 cells temporarily transfected with an ERE-luciferase reporter vector (C) or an AP-1-luciferase reporter vector (D) were treated with the ERAP1-peptide in the concentrations shown in the figure or 10 nM tamoxifen. Then, immediately, the cells were stimulated with 10 nM E2 thr 24 hours.
(§3) For ERE reporter assay, MCF-7 cells were transfected with ERE reporter (SABiosciences, Frederick, Md., USA) in accordance with the instruction of the manufacturer. For AP-1 reporter assay, MCF-7 cells were transfected with AP-1 reporter (mouse IL-11 promoter comprising two tandem AP-1 sites subcloned into PGL2-basic vector), c-fos, c-Jun and pRL-TK as an internal standard. After 16 hours from the transfection, the culture medium was exchanged with an assay culture medium (Opti-MEM, 10% FBS, 0.1 mM NEAA, 0.1 mM Sodium pyruvate and 10 μg/ml insulin) After 24 hours from the transfection, the cells were treated with E2 and/or the ERAP1-peptide or 24 hours. The cells were harvested, and the activities of luciferase and Renilla-luciferase were evaluated using Promega dual luciferase reporter assay (Tokyo, Japan). In consideration of the transfection efficiency, all of the data were standardized by the activity of Renilla-luciferase.

[2] = test system: transcriptional activity of ERα (AP-1); experiment: AP-1-luciferase reporter assay in MCF-7 cells; assay type: cell-based, human; conditions: 10 nM E2 24 hours
Procedure: as §1, §2, §3

[3] = test system: PHB2/REA localization in MCF-7 cells; experiment: Nuclear translocation of PHB2/REA (fractionation, immunoblotting, immunostaining); assay type: cell-based, human; conditions: for nuclear translocation of PHB2/REA, temporal: 1 hour to 24 hours after administration
Procedure: FIG. 3-1 is a diagram illustrating that ERAP1-peptide treatment promotes nuclear translocation of PHB2. […] MCF-7 cells were stimulated for 24 hours with 10 μM ERAP1-peptide and/or 10 nM E2. The cells were fractioned into mitochondria, cytoplasm, and nuclear fractions by specific gravity centrifugation. Then, each fraction was subjected to immunoblotting analysis using an anti-ERAP1 antibody and an anti-PHB2 antibody. PRDX3, α/β-Tublin (Tublin) and lamin B are markers for mitochondria, cytoplasm, and nuclear fractions, respectively (upper panel). The protein content of each fraction was evaluated with Coomassie-stained SDS-PAGE gel (lower panel). […] KPL-3C cells were treated for 24 hours with 10 μM HA-tagged ERAP1-peptide and/or 10 nM E2. Then, the cells were fractionated into cytoplasm and nuclear fractions by specific gravity centrifugation. Then, which fraction was immunoprecipitated with anti-ERα antibody, an anti-ERAP1 antibody or an anti-PHB2 antibody. Then, immunoblotting was performed with each antibody shown in the figure (an anti-ERAP1 antibody, an anti-ERα antibody, an anti-PHB2 antibody and an anti-HA antibody (Peptide)). α/β-Tubulin (Tubulin) and Lamin B are markers for cytoplasm and nuclear fractions, respectively.
FIG. 4-1 is a diagram illustrating that the ERAP1-peptide promotes nuclear translocation of PHB2. (A) The upper panel illustrates representative images of stained immune cells, showing the intracellular localization of PHB2. MCF-7 cells were treated with 10 μM ERAP1-peptide or ERAP1-scramble peptide. Subsequently, the cells were treated with 10 nM E2. After the immobilization, the cells were subjected to immunofluorescent staining using an anti-PHB2 antibody and DAPI (for discriminating the nucleus).
FIG. 4-2 is a diagram illustrating that the ERAP1-peptide promotes nuclear translocation of PHB2. (B) is a diagram illustrating the results of immunoblotting analysis by which the intracellular localization of PHB2 was detected, MCF-7 cells were treated with the ERAP1-peptide or the ERAP1-scramble peptide. Subsequently immediately, the cells were treated with 10 nM E2. The cells were fractionated into cytoplasm and nuclear fractions after 1 hour or 24 hours. Each fraction was immunoprecipitated with anti-ERα antibody, an anti-ERAP1 antibody or a PH82 antibody. […]
MCF-7 cells were seeded in an 8-well chamber (Laboratory-Tek II Chamber Slide System, Nalgen Nunc International, Naperville, Ill., USA) in 5×10^4 cells/well, and cultured under estrogen-free condition for 24 hours. […] The fluorescence image was obtained under Olympus IX71 microscope (Tokyo, Japan). […]

[4] = biological target: T1, binding of inherent ERAP1 and inherent PHB2/REA (Homo sapiens, UniProt Q99623); experiment: Inhibition of ERAP1-PHB2/REA binding in cells, immunoprecipitation-Western blotting; assay type: cell-based; conditions: MCF-7 and KPL-3C cells; 10 μM peptide; 10 nM E2 24 hours
T1 construct: endogenous in cells; host or cells: MCF-7 and KPL-3C breast cancer cells
T1 sequence (Q99623 2-299 limits assumed): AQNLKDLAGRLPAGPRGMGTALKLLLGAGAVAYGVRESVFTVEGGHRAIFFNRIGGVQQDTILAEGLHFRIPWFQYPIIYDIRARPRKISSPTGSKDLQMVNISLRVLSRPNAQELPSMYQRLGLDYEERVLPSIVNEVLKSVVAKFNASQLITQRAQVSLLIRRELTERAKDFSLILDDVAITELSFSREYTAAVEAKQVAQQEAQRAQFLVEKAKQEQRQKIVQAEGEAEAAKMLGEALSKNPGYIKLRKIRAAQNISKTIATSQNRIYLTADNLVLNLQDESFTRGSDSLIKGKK

ERα phosphorylation = experiment: E2-induced ERα phosphorylation, Western blotting, MCF-7; assay type: cell-based, human; conditions: 3 hours to 24 hours after E2

Compound: CSCC[C@H](NC(=O)[C@H](CCC(N)=O)NC(=O)[C@H](CCCNC(=N)N)NC(=O)[C@H](CCCNC(=N)N)NC(=O)[C@H](CCCNC(=N)N)NC(=O)[C@H](CCCNC(=N)N)NC(=O)[C@H](CCCNC(=N)N)NC(=O)[C@H](CCCNC(=N)N)NC(=O)[C@H](CCCNC(=N)N)NC(=O)[C@H](CCCNC(=N)N)NC(=O)[C@H](CCCNC(=N)N)NC(=O)[C@H](CCCNC(=N)N)NC(=O)[C@@H](N)CCCNC(=N)N)C(=O)N[C@@H](CC(C)C)C(=O)N[C@@H](CO)C(=O)N[C@@H](CC(=O)O)C(=O)N[C@@H](CC(C)C)C(=O)N[C@H](C(=O)N[C@@H](CC(C)C)C(=O)N[C@@H](CCC(N)=O)C(=O)N[C@@H](CC(C)C)C(=O)N[C@@H](CCCNC(=N)N)C(=O)N[C@@H](CCC(N)=O)C(=O)N[C@@H](CCCNC(=N)N)C(=O)O)[C@@H](C)O [ERAP1-peptide]
transcriptional activity of ERα in ERE [1]: suppressed the transcriptional activity of ERα | transcriptional activity of ERα in AP-1 [2]: suppressed the transcriptional activity of ERα | nuclear translocation of PHB2/REA, temporal [3]: Prompt nuclear translocation of inherent PHB2/REA at 1 hour | translocation of PHB2/REA from the cytoplasm into the nucleus ([3]; E2 and peptide at the same time, 10 μM, 24 hours): remarkable translocation of PHB2/REA from the cytoplasm into the nucleus | inhibition of the binding of inherent ERAP1 and inherent PHB2/REA [4]: remarkably inhibited | E2-dependent phosphorylation of six sites of ERα (ERα phosphorylation): suppressed to the same degree as that of no administration of E2

inhibition of the binding of inherent ERAP1 and inherent PHB2/REA [4]: not recognized in any of the cells
Compound: DRQLQLSTLQRML (SEQ ID NO: 28) (ERAP1-scramble peptide) [reference compound]
transcriptional activity of ERα in ERE [1]: no change was recognized | transcriptional activity of ERα in AP-1 [2]: no change was recognized | nuclear translocation of PHB2/REA, temporal [3]: not recognized | E2-dependent phosphorylation of six sites of ERα (ERα phosphorylation): the suppression effect was not recognized
